We go through 17 compounds from patent US11814444B2, “Cyclic polypeptides for PCSK9 inhibition” (Ra Pharmaceuticals, Inc., priority 2018, dated 2023).

Molecules are shown by their SMILES. Numbered stars: 1 amine (or outer) side, 2 acyl side, 3 side chain; on linkers, the order of the positions; unused ones are H or OH. Bridge positions count the residues as written; N and C are the ends. Square brackets hold non-standard residues; d marks the D form. Peptide text beside a SMILES is read from it. Trp(7-aza) = N[C@@H](Cc1c[nH]c2ncccc12)C(=O)O; X7 = O=C(CCSCc1cccc(CSCCN[*:1])c1)[*:2]; Ala(2-furyl) = N[C@@H](Cc1ccco1)C(=O)O; 1Nal = N[C@@H](Cc1cccc2ccccc12)C(=O)O; mXylylene = c1cc(C[*:1])cc(C[*:2])c1; 3Thi = N[C@@H](Cc1ccsc1)C(=O)O; Aad = N[C@@H](CCCC(=O)O)C(=O)O; Chg = N[C@H](C(=O)O)C1CCCCC1; PEG4 = NCCOCCOCCOCCOCCC(=O)O; Tle = CC(C)(C)[C@H](N)C(=O)O; αMeV = CC(C)[C@](C)(N)C(=O)O; NMeV = CN[C@H](C(=O)O)C(C)C; S5 = C=CCCC[C@](C)(N)C(=O)O; hSer = N[C@@H](CCO)C(=O)O; Iva = CC[C@](C)(N)C(=O)O; Nva = CCC[C@H](N)C(=O)O; Aib = CC(C)(N)C(=O)O; Mpa = O=C(O)CCS

For the assay, the target named is human PCSK9 / human LDLR EGFa domain interaction (Homo sapiens, UniProt Q8NBP7). The assay is described as follows: TR-FRET assay of inhibition of the PCSK9-LDLR protein-protein interaction. The class given is binding. Particulars: 20 nM avitag-biotinylated human PCSK9, 20 nM his-tagged human LDLR EGFa domain, 2 hours, room temperature. As for the experimental part:
A time-resolved fluorescence resonance energy (TR-FRET) assay was used to measure inhibition of the PCSK9-LDLR protein-protein interaction. Briefly, 20 nM avitag-biotinylated human PCSK9 was incubated with 20 nM his-tagged human LDLR EGFa domain in the presence of 5 nM LANCE Ulight Streptavidin (Perkin Elmer) and 5 nM europium-Anti-6×His (Perkin Elmer) for 2 hours covered at room temperature in buffer containing 50 mM HEPES, 150 mM NaCl, 5 mM CaCl2), 0.01% BSA and 0.01% Surfactant P20. Compounds were tested in dose-response and concentrations giving half-maximal inhibition calculated using a 4-parameter fit equation.
On the technique in general: In TR-FRET formats the signal depends on donor and acceptor labels being close together.

human PCSK9 / human LDLR EGFa domain interaction, sequence (Q8NBP7 153-692): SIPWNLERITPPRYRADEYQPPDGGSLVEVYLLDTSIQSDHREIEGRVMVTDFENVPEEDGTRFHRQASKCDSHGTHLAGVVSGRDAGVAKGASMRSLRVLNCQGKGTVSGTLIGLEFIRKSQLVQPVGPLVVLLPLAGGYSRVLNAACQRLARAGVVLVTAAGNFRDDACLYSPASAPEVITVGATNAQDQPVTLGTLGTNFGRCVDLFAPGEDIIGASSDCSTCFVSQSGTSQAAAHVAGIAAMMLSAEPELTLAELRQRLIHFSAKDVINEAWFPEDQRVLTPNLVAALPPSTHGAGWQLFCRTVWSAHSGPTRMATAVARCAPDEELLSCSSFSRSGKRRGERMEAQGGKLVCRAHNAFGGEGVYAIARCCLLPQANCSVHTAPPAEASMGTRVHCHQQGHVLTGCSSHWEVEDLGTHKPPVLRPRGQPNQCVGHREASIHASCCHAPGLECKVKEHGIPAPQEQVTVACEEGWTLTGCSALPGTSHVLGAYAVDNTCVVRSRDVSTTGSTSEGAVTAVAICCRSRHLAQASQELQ
human PCSK9 / human LDLR EGFa domain interaction, sequence (Q8NBP7 31-152 partner limits assumed): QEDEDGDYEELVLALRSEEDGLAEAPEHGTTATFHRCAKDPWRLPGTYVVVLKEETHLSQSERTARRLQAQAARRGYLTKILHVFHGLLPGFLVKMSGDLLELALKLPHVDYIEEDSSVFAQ

The IC50 is the concentration that inhibits the measured activity by half. A high value points to a need for much substance. Compound `C=CCCC[C@]1(C)NC(=O)[C@H](Cc2cccc3ccccc23)NC(=O)[C@H]([C@@H](C)O)NC(=O)[C@@H]2CCCN2C(=O)[C@H](Cc2ccc(O)cc2)NC(=O)[C@H](C(C)(C)C)NC(=O)[C@@H](NC(C)=O)CCCC(=O)NCCCC[C@@H](C(N)=O)NC(=O)[C@](C)(CCCC=C)NC(=O)[C@H](CCC)NC(=O)[C@H](Cc2ccc(O)cc2)NC(=O)[C@H](C)NC1=O` [Compound 044] (Ac-[Aad][Tle]YPT[1Nal][S5]AY[Nva][S5]K-NH2; lactam 1-12) yielded an IC50 of 100 to 1000 nM.
To `CCC[C@@H]1NC(=O)[C@H](Cc2ccc(O)cc2)NC(=O)[C@H](C)NC(=O)C(C)(C)NC(=O)[C@H](Cc2c[nH]c3ncccc23)NC(=O)[C@H]([C@@H](C)O)NC(=O)[C@@H]2CCCN2C(=O)[C@H](Cc2ccc(O)cc2)NC(=O)[C@H](C(C)(C)C)NC(=O)[C@@H](NC(C)=O)CCCC(=O)NCCCC[C@@H](C(N)=O)NC(=O)C(C)(C)NC1=O` [Compound 049] (Ac-[Aad][Tle]YPT[Trp(7-aza)][Aib]AY[Nva][Aib]K-NH2; lactam 1-12) belongs 100 to 1000 nM; to `C=CCCC[C@]1(C)NC(=O)[C@H](CCC)NC(=O)[C@H](Cc2ccc(O)cc2)NC(=O)[C@H](C)NC(=O)[C@](C)(CC)NC(=O)[C@H](Cc2c[nH]c3ncccc23)NC(=O)[C@H]([C@@H](C)O)NC(=O)[C@@H]2CCCN2C(=O)[C@H](Cc2ccc(O)cc2)NC(=O)[C@H](C(C)(C)C)NC(=O)[C@@H](NC(C)=O)CCCC(=O)NCCCC[C@@H](C(N)=O)NC1=O` [Compound 050] (Ac-[Aad][Tle]YPT[Trp(7-aza)][Iva]AY[Nva][S5]K-NH2; lactam 1-12), 1000 to 21000 nM; to `CCC[C@@H]1NC(=O)[C@H]([C@@H](C)O)NC(=O)[C@@H]2CCCN2C(=O)[C@H](Cc2ccc(O)cc2)NC(=O)[C@H](C(C)(C)C)NC(=O)[C@@H](NC(C)=O)CCCCNC(=O)CCC[C@@H](C(N)=O)NC(=O)[C@H]([C@@H](C)O)NC(=O)[C@](C)(C(C)C)NC(=O)[C@H](Cc2ccc(O)cc2)NC(=O)[C@H](C)NC1=O` [Compound 057] (Ac-K[Tle]YPT[Nva]AY[αMeV]T[Aad]-NH2; lactam 1-11), 1000 to 21000 nM.
To `CCC[C@@H]1NC(=O)[C@H](Cc2c[nH]c3ncccc23)NC(=O)[C@H]([C@@H](C)O)NC(=O)[C@@H]2CCCN2C(=O)[C@H](Cc2ccc(O)cc2)NC(=O)[C@H](C(C)(C)C)NC(=O)[C@@H](NC(C)=O)CCCC(=O)NCCCC[C@H](C(N)=O)NC(=O)[C@H]([C@@H](C)O)NC(=O)[C@](C)(C(C)C)NC(=O)[C@H](Cc2ccc(O)cc2)NC(=O)[C@H](C)NC1=O` [Compound 072] (Ac-[Aad][Tle]YPT[Trp(7-aza)][Nva]AY[αMeV]T[dK]-NH2; lactam 1-12) belongs 1000 to 21000 nM.
`CCC[C@@H]1NC(=O)[C@H](Cc2ccc(O)cc2)NC(=O)[C@H](C)NC(=O)[C@@](C)(NC(=O)[C@H](Cc2cccc3ccccc23)NC(=O)[C@@H](NC(=O)[C@@H]2CCCN2C(=O)[C@H](Cc2ccc(O)cc2)NC(=O)[C@@H](NC(C)=O)C(C)(C)C)[C@@H](C)O)CCC/C=C/CCC[C@@](C)(C(N)=O)NC1=O` [Compound 078] (Ac-[Tle]YPT[1Nal][S5]AY[Nva][S5]-NH2; staple (E) 6-10) displayed an IC50 of 1000 to 21000 nM.
For `CCC[C@@H]1NC(=O)[C@H](Cc2c[nH]c3ncccc23)NC(=O)[C@H]([C@@H](C)O)NC(=O)[C@H](Cc2ccco2)NC(=O)[C@H](Cc2ccc(O)cc2)NC(=O)[C@H](C(C)(C)C)NC(=O)CCSCc2cccc(c2)CSC[C@@H](C(N)=O)NC(=O)[C@H]([C@@H](C)O)NC(=O)[C@H](CCC)NC(=O)[C@H](Cc2ccc(O)cc2)NC(=O)[C@H](CCC(=O)O)NC1=O` [Compound 117] ([Mpa][Tle]Y[Ala(2-furyl)]T[Trp(7-aza)][Nva]EY[Nva]TC-NH2; linker 1-12 via mXylylene), the IC50 was 1000 to 21000 nM.
Compound `CCC[C@@H]1NC(=O)[C@H](Cc2c[nH]c3ncccc23)NC(=O)[C@H]([C@@H](C)O)NC(=O)[C@H](Cc2ccsc2)NC(=O)[C@H](Cc2ccc(O)cc2)NC(=O)[C@H](C(C)(C)C)NC(=O)CCSCc2cccc(c2)CSC[C@@H](C(N)=O)NC(=O)[C@H]([C@@H](C)O)NC(=O)[C@H](CCC)NC(=O)[C@H](Cc2ccc(O)cc2)NC(=O)[C@H](CCC(=O)O)NC1=O` [Compound 119] ([Mpa][Tle]Y[3Thi]T[Trp(7-aza)][Nva]EY[Nva]TC-NH2; linker 1-12 via mXylylene) yielded an IC50 of 1000 to 21000 nM.
To `CC(C)[C@H]1C(=O)N[C@@H](Cc2ccccc2)C(=O)N2CCC[C@H]2C(=O)N[C@@H]([C@@H](C)O)C(=O)N[C@@H](Cc2cccc3ccccc23)C(=O)NC(C)(C)C(=O)N[C@@H](C)C(=O)N[C@@H](Cc2ccccc2)C(=O)N[C@@](C)(C(C)C)C(=O)N[C@@H](C)C(=O)NCCSCc2cccc(c2)CSCCC(=O)N1C` [Compound 143] (cyclo([1Nal][Aib]AF[αMeV]A[X7][NMeV]FPT)) belongs 1000 to 21000 nM; to `CCC[C@H](NC(C)=O)C(=O)N[C@H]1CSCc2cccc(c2)CSC[C@@H](C(N)=O)NC(=O)[C@H]([C@@H](C)O)NC(=O)[C@H](C2CCCCC2)NC(=O)[C@H](Cc2c[nH]c3ncccc23)NC(=O)[C@H](Cc2c[nH]cn2)NC(=O)[C@H](CCC(=O)O)NC(=O)[C@H](Cc2c[nH]c3ncccc23)NC(=O)[C@H]([C@@H](C)O)NC(=O)[C@@H]2CCCN2C(=O)[C@H](Cc2ccc(O)cc2)NC(=O)[C@H](C(C)(C)C)NC1=O` [Compound 152] (Ac-[Nva]C[Tle]YPT[Trp(7-aza)]EH[Trp(7-aza)][Chg]TC-NH2; linker 2-13 via mXylylene), 1 to 100 nM; to `CCC[C@H](NC(C)=O)C(=O)N[C@H]1CSCc2cccc(c2)CSC[C@@H](C(N)=O)NC(=O)[C@H]([C@@H](C)O)NC(=O)[C@H](CCC)NC(=O)[C@H](Cc2ccc(O)cc2)NC(=O)[C@H](CCC(=O)O)NC(=O)[C@H](CCC)NC(=O)[C@H](Cc2c[nH]c3ncccc23)NC(=O)[C@H]([C@@H](C)O)NC(=O)[C@@H]2CCCN2C(=O)[C@H](Cc2ccc(O)cc2)NC(=O)[C@H](C(C)(C)C)NC1=O` [Compound 153] (Ac-[Nva]C[Tle]YPT[Trp(7-aza)][Nva]EY[Nva]TC-NH2; linker 2-13 via mXylylene), 100 to 1000 nM.
The same measure for `C[C@@H](O)[C@@H]1NC(=O)[C@H](C2CCCCC2)NC(=O)[C@H](Cc2c[nH]c3ncccc23)NC(=O)[C@H](Cc2c[nH]cn2)NC(=O)[C@H](CCC(=O)O)NC(=O)[C@H](Cc2c[nH]c3ncccc23)NC(=O)[C@H]([C@@H](C)O)NC(=O)[C@@H]2CCCN2C(=O)[C@H](Cc2ccc(O)cc2)NC(=O)[C@H](C(C)(C)C)NC(=O)CCSCc2cccc(c2)CSC[C@@H](C(N)=O)NC1=O` [Compound 154] ([Mpa][Tle]YPT[Trp(7-aza)]EH[Trp(7-aza)][Chg]TC-NH2; linker 1-12 via mXylylene): 100 to 1000 nM; for `CCC[C@@H]1NC(=O)[C@H](Cc2c[nH]c3ncccc23)NC(=O)[C@H]([C@@H](C)O)NC(=O)[C@@H]2CCCN2C(=O)[C@H](Cc2ccc(O)cc2)NC(=O)[C@H](C(C)(C)C)NC(=O)CCSCc2cccc(c2)CSC[C@@H](C(N)=O)NC(=O)[C@H]([C@@H](C)O)NC(=O)[C@H](CCC)NC(=O)[C@H](Cc2ccc(O)cc2)NC(=O)[C@H](C)NC1=O` [Compound 157] ([Mpa][Tle]YPT[Trp(7-aza)][Nva]AY[Nva]TC-NH2; linker 1-12 via mXylylene): 100 to 1000 nM; for `CCC[C@@H]1NC(=O)[C@H](Cc2c[nH]c3ncccc23)NC(=O)[C@H]([C@@H](C)O)NC(=O)[C@@H]2CCCN2C(=O)[C@H](Cc2ccc(O)cc2)NC(=O)[C@H](C(C)(C)C)NC(=O)CCSCc2cccc(c2)CSC[C@@H](C(N)=O)NC(=O)[C@H]([C@@H](C)O)NC(=O)[C@H](CCC)NC(=O)[C@H](Cc2ccc(O)cc2)NC(=O)[C@H](CCO)NC1=O` [Compound 158] ([Mpa][Tle]YPT[Trp(7-aza)][Nva][hSer]Y[Nva]TC-NH2; linker 1-12 via mXylylene): 1000 to 21000 nM.
`CCC[C@@H]1NC(=O)[C@H](Cc2c[nH]c3ncccc23)NC(=O)[C@H]([C@@H](C)O)NC(=O)[C@@H]2CCCN2C(=O)[C@H](Cc2ccc(O)cc2)NC(=O)[C@H](C(C)(C)C)NC(=O)CCSCc2cccc(c2)CSC[C@@H](C(N)=O)NC(=O)[C@H](CCC(=O)O)NC(=O)[C@H](CCC)NC(=O)[C@H](Cc2ccc(O)cc2)NC(=O)[C@H](C)NC1=O` [Compound 159] ([Mpa][Tle]YPT[Trp(7-aza)][Nva]AY[Nva]EC-NH2; linker 1-12 via mXylylene) gave an IC50 of 1000 to 21000 nM.
`CCC[C@@H]1NC(=O)[C@H](Cc2c[nH]c3ncccc23)NC(=O)[C@H]([C@@H](C)O)NC(=O)[C@@H]2CCCN2C(=O)[C@H](Cc2ccc(O)cc2)NC(=O)[C@H](C(C)(C)C)NC(=O)CCSCc2cccc(c2)CSC[C@@H](C(N)=O)NC(=O)[C@H]([C@@H](C)O)NC(=O)[C@H](CCC(=O)O)NC(=O)[C@H](Cc2ccc(O)cc2)NC(=O)[C@H](C)NC1=O` [Compound 160] ([Mpa][Tle]YPT[Trp(7-aza)][Nva]AYETC-NH2; linker 1-12 via mXylylene) returned an IC50 of 100 to 1000 nM.
`CCC[C@@H]1NC(=O)[C@H](Cc2c[nH]c3ncccc23)NC(=O)[C@H]([C@@H](C)O)NC(=O)[C@@H]2CCCN2C(=O)[C@H](Cc2ccc(O)cc2)NC(=O)[C@H](C(C)(C)C)NC(=O)CCSCc2cccc(c2)CSC[C@@H](C(=O)NCCOCCOCCOCCOCCC(N)=O)NC(=O)[C@H]([C@@H](C)O)NC(=O)[C@H](CCC)NC(=O)[C@H](Cc2ccc(O)cc2)NC(=O)[C@H](C)NC1=O` [Compound 163] ([Mpa][Tle]YPT[Trp(7-aza)][Nva]AY[Nva]TC[PEG4]-NH2; linker 1-12 via mXylylene) gave an IC50 of 100 to 1000 nM.
